Source: PubChem BioAssay (NCI)
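Dose response: 5 concentrations. Exposure: 48 h. Format: 96-well plates. Endpoint: linear interpolation; highest concentration if not reached. Here, GI50 denotes the concentration required for 50% inhibition of growth. The concentration for full growth arrest is given as TGI.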

What was measured:
Experiment in all cases: inhibition of tumour cell growth, NCI panel, 48 h
SNB-19 CNS = system: SNB-19 CNS
TK-10 renal = system: TK-10 renal
SR leukemia = system: SR leukemia
786-0 renal = system: 786-0 renal
LOX IMVI melanoma = system: LOX IMVI melanoma
RXF 393 renal = system: RXF 393 renal
PC-3 prostate = system: PC-3 prostate
MDA-MB-231 breast = system: MDA-MB-231 breast
MCF7 breast = system: MCF7 breast
T-47D breast = system: T-47D breast

Compound	TGI (SNB-19 CNS)	TGI (TK-10 renal)	TGI (SR leukemia)	TGI (786-0 renal)	TGI (LOX IMVI melanoma) [µM]	TGI (RXF 393 renal)	TGI (PC-3 prostate)	TGI (MDA-MB-231 breast)	TGI (MCF7 breast)	TGI (T-47D breast)	GI50 (SNB-19 CNS)	GI50 (PC-3 prostate)	GI50 (MDA-MB-231 breast)	GI50 (TK-10 renal)	GI50 (SR leukemia)	GI50 (786-0 renal)	GI50 (LOX IMVI melanoma) [µM]	GI50 (MCF7 breast)	GI50 (T-47D breast)	GI50 (RXF 393 renal)
Cc1nn(C)c(=O)c2nn(-c3ccccc3)c(C)c12	> 100 µM	> 100 µM	> 100 µM	> 100 µM	> 100	> 100 µM	–	–	–	–	–	–	–	–	–	–	–	–	–	–
O=C1CCC(=O)C12CCc1cccc(O)c12	–	> 100 µM	–	> 100 µM	> 100	> 100 µM	–	–	–	–	–	–	–	–	–	–	–	–	–	–
Cc1ccc([Se][Se]c2ccc(C)cc2)cc1	> 100 µM	> 100 µM	–	46.5 µM	18.9	> 100 µM	–	–	–	–	–	–	–	–	–	–	–	–	–	–
Cc1nc2ccc(NCCN(C)C)c3c(=O)c4cc(O)ccc4n1c23	7.06 µM	12.5 µM	0.248 µM	10.5 µM	2.62	–	4.86 µM	13.2 µM	11.5 µM	14.8 µM	–	–	–	–	–	–	–	–	–	–
Cc1nn(C)c(=S)n(C)c1=O	41 µM	26.2 µM	–	20.3 µM	> 100	7.33 µM	–	–	–	–	–	–	–	–	–	–	–	–	–	–
CC1(CO)C(=O)OC12CCCCC2 (configuration not stated)	> 100 µM	> 100 µM	> 100 µM	> 100 µM	> 100	–	–	–	–	–	–	–	–	–	–	–	–	–	–	–
CN(Cc1ccccc1)C1(N(C)Cc2ccccc2)CC1	> 100 µM	> 100 µM	–	> 100 µM	> 100	> 100 µM	–	–	–	–	–	–	–	–	–	–	–	–	–	–
NC(=S)N/N=C(\C(=O)Nc1ccc(Cl)c(Cl)c1)C1=NN(c2ccccc2)C(c2cccc([N+](=O)[O-])c2)CC1=O (configuration not stated)	> 100 µM	> 100 µM	> 100 µM	36.8 µM	30.8	–	–	–	–	–	–	–	–	–	–	–	–	–	–	–
CC1=C(c2cc(C(=O)Nc3cccc(C(F)(F)F)c3)nc(NC#N)n2)Sc2ccccc2N1	> 100 µM	> 100 µM	> 100 µM	> 100 µM	> 100	> 100 µM	–	–	–	–	–	–	–	–	–	–	–	–	–	–
COc1cc(C(CC(OC)OC)=C(C#N)C#N)cc(OC)c1OC	> 100 µM	> 100 µM	> 100 µM	> 100 µM	25.1	> 100 µM	–	–	–	–	–	–	–	–	–	–	–	–	–	–
COC(=O)c1cc2c(cc1Cl)SC(N(N(C)C)S(=O)(=O)c1ccc(Cl)cc1)=NS2(=O)=O	50.2 µM	53.3 µM	40.9 µM	> 100 µM	28.3	–	20.5 µM	44 µM	34.8 µM	26.7 µM	17.3 µM	7.63 µM	17.1 µM	19.2 µM	19.8 µM	31.3 µM	15	17 µM	8.42 µM	–
COc1cccc2c(Nc3ccc(C(=O)NCCN(C)C)cc3)cc(-c3ccccc3)nc12	–	57.2 µM	7.52 µM	14.2 µM	33.9	19.7 µM	40.5 µM	19.4 µM	–	50.2 µM	–	13.3 µM	4.15 µM	23.8 µM	1.86 µM	2.26 µM	18.1	–	19.7 µM	5.12 µM
c1ccc2c(c1)ccc1c3ccccc3ccc21	> 50 µM	> 50 µM	–	> 50 µM	> 50	> 50 µM	> 50 µM	> 50 µM	> 50 µM	> 50 µM	> 50 µM	> 50 µM	> 50 µM	> 50 µM	–	> 50 µM	> 50	> 50 µM	> 50 µM	> 50 µM
COc1ccc2sc3c(NCCCNCCO)nc4ccccc4c3c(=O)c2c1	3.15 µM	3.38 µM	5.61 µM	2.82 µM	3	2.7 µM	3.1 µM	2.95 µM	3.1 µM	–	1.65 µM	1.58 µM	1.48 µM	1.83 µM	1.97 µM	1.38 µM	1.57	1.54 µM	–	1.31 µM
COc1ccc(/C=C/C(C(=O)O)C(=O)O)cc1	> 100 µM	> 100 µM	> 100 µM	> 100 µM	39.5	–	–	–	–	–	–	–	–	–	–	–	–	–	–	–
C=C1C(=O)O[C@H]2[C@H]1CC(=O)/C(C)=C\CC[C@@]1(C)O[C@@H]21	16.1 µg/mL	5.38 µg/mL	9.5 µg/mL	4.51 µg/mL	–	9.41 µg/mL	8.7 µg/mL	8.82 µg/mL	10.1 µg/mL	9.53 µg/mL	7.62 µg/mL	4.53 µg/mL	4.58 µg/mL	1.93 µg/mL	0.759 µg/mL	1.06 µg/mL	–	1.77 µg/mL	2.57 µg/mL	2.95 µg/mL
CN(C)CCNC(=O)c1cccc2c1nc(-c1ccccn1)c1ccccc12	> 100 µM	–	–	43.7 µM	–	29.2 µM	–	–	–	–	–	–	–	–	–	–	–	–	–	–
N#Cc1nc(Nc2ccc([N+](=O)[O-])cc2)sc1N	> 95.1 µM	> 77 µM	6.85 µM	> 100 µM	28.6	–	–	–	–	–	–	–	–	–	–	–	–	–	–	–
C=CCNc1cccc2c1C(=O)c1ccccc1C2(O)CC=C (configuration not stated)	44.7 µM	57.8 µM	> 100 µM	36.9 µM	35.9	–	73.8 µM	28.3 µM	> 100 µM	> 100 µM	18.5 µM	26.6 µM	12.3 µM	25.2 µM	36.8 µM	19.8 µM	18.6	66.7 µM	32.2 µM	–
COP1(=S)OCC2CCC[C@@H]2O1 (some centres not stated)	> 100 µM	> 100 µM	> 100 µM	> 100 µM	–	> 100 µM	> 100 µM	> 100 µM	–	> 100 µM	–	–	–	–	–	–	–	–	–	–
CC1=N/C(=C\c2cccc3ccccc23)C(=O)O1	> 100 µM	> 100 µM	–	> 100 µM	–	> 100 µM	–	–	–	–	–	–	–	–	–	–	–	–	–	–
CCCCCCCCCC(=O)N[C@H]1CCc2cc(OC)c(OC)c(OC)c2-c2ccc(SC)c(=O)cc21	75 µM	25.5 µM	–	10.4 µM	–	0.0551 µM	–	–	–	–	–	–	–	–	–	–	–	–	–	–
Cc1ccc(N(C(=O)CC(=O)N2N=C(c3ccccc3)C(N=Nc3ccc([N+](=O)[O-])cc3)C2=O)C(=O)c2ccc(Cl)cc2)cc1 (configuration not stated)	60.1 µM	> 51.4 µM	23.1 µM	30.5 µM	15.7	10.9 µM	–	–	–	–	–	–	–	–	–	–	–	–	–	–
